Test results from patent publication US20160220677A1, “STABLE AQUEOUS COMPOSITIONS OF PROSTGLANDIN AGONIST PRODRUGS AND METHODS FOR USE THEREOF” (Allergan, Inc., priority 2009, published 2016).

Experiment: Aqueous stability of formulations, % recovery by HPLC
Type: physicochemical
Conditions: 30° C.; 45 days; each formulation (Formulations 1-4)
Procedure: The aqueous stability of invention compositions was evaluated using Compounds 2 and 3.
The formulations were analyzed by HPLC with the following measurement parameters:
Column: BioWidePore C18 (SUPELCO), 4.6 mm×25 cm, 5 μm Mobile Phase A: 0.1% (V/V) trifluoroacetic acid (TFA) in di-water, 0.8 micron filtered Mobile Phase B: 100% acetonitrile, 0.8 micron filtered Column temp: Ambient Injection volume: 30 μL
Flow: 1.0 mL/min Run time: 25 minutes Sample diluent: 50% acetonitrile in di-water
Using the above HPLC parameters, the following stability data was generated: […]

stability in each formulation: stable
SMILES: CCCCCC(O)c1ccc(N2C(=O)CC[C@@H]2CCCc2ccc(C(=O)OCCO)s2)cc1 (stereo partly shown) [Compound 2]
